Numbers after ± are expanded uncertainties.

What is called mass density is the mass of a sample divided by its volume. The term viscosity denotes the internal friction of a fluid under shear.

The conditions of the series: 298.15 K, 101.33 kPa, Liquid; for viscosity: Capillary tube (Ostwald / Ubbelohde) method.

`CC(C)(C)O` [2-methylpropan-2-ol]: the mass density is recorded as 780.78 ± 0.65 kg/m3 and the viscosity was 4.384 ± 0.038 mPa·s.
`CCCCCl` [1-chlorobutane]: the mass density worked out at 880.69 ± 0.61 kg/m3 and the viscosity was found to be 0.4235 ± 0.0054 mPa·s.
The matching figures for `CCCCCC` [hexane]: 655.07 ± 0.98 kg/m3 and 0.2949 ± 0.0048 mPa·s.
The corresponding values for `CC(C)CO` [2-methyl-1-propanol] are 797.77 ± 0.62 kg/m3 and 3.353 ± 0.027 mPa·s.

Values taken from the NIST ThermoML archive (doi:10.1021/je800048f).
